Tests used:
[1] = test system: uptake of 5-hydroxytryptamine; experiment: inhibition of 5-hydroxytryptamine uptake in brain slices; format: biochemical, rat; parameters: key: Compounds not achieving 50% inhibition are considered inactive; settings: for inhibition of 5-HT (hydroxytryptamine) uptake (in words): rat brain slices; for Potency Ratio (imipramine = 1.0) 5-hydroxytryptamine: rat cerebral cortex slices, H^3 5-hydroxytryptamine
Method: (§1) The compounds of formula I were tested for the ability to inhibit noradrenaline and 5-hydroxytryptamine uptake in brain slices in the following standard test:
The effects of test compounds on the neuronal uptake of noradrenaline into slices of cerebral cortex prepared from rat brain is determined according to the method described by Snyder, Green and Hendley, Kinetics of H^3 --norepinephrine accumulation into slices from different regions of the rat brain (J.Pharm. exp. Therap. 164: 90-102) (1968). The effects of test compounds on the uptake of 5-hydroxytryptamine is obtained in a similar manner except that H^3 5-hydroxytryptamine is used in place of H^3 noradrenaline. Concentration-response curves are obtained both for the test compound and for the standard agent, imipramine. The potency of each test compound is expressed in proportion to that of imipramine. Thus, [formula]

[2] = test system: neuronal uptake of noradrenaline into slices of cerebral cortex; experiment: inhibition of noradrenaline uptake in brain slices; format: biochemical, rat; settings: for inhibition of noradrenaline uptake (in words): rat brain slices; for Potency Ratio (imipramine = 1.0) Noradrenaline: rat cerebral cortex slices, H^3 noradrenaline
Method: as §1
Concentration-response curves are obtained both for the test compound and for the standard agent, imipramine. The potency of each test compound is expressed in proportion to that of imipramine. Thus, [formula]

[3] = test system: p-chloroamphetamine induced hyperactivity; experiment: inhibition of p-chloroamphetamine (pCA) induced hyperactivity; format: in vivo; settings: female mice; 50 mg/kg po; 20 mg/kg pCA ip 30 min later; activity 10-30 min post pCA
Method: Compounds of formula I were also tested for their ability to inhibit p-chloroamphetamine induced hyperactivity. The following procedure was used:
Three groups of 4 female mice (20-24 g) received the test compounds (50 mg/kg po) and a fourth group the requisite volume of vehicle. Thirty minutes later all the animals are given 20 mg/kg p-chloroamphetamine (pCA) ip. The grouped mice are placed immediately in square plastic cages in activity monitors and their motor activity recorded over the period 10-30 minutes post pCA. This procedure is repeated three more times so that four groups of mice are used per treatment and each activity monitor is used with all treatments in turn. The inhibition of pCA induced hyperactivity is calculated thus: [formula] where C=mean activity of control groups 10-30 minutes post pCA.
T=mean activity of treated groups 10-30 minutes post pCA.
This test is used as an in vivo screen for detection of 5-hydroxytryptamineuptake inhibitors.
Compounds giving >50% inhibition are considered of special interest. In such a test the following compounds were particularly active: […]

| SMILES | inhibition of 5-HT (hydroxytryptamine) uptake (in words) [1] | Potency Ratio (imipramine = 1.0) 5-hydroxytryptamine [1] | inhibition of noradrenaline uptake (in words) [2] | Potency Ratio (imipramine = 1.0) Noradrenaline [2] | % Inhibition of pCA induced hyperactivity [3] [%] |
| --- | --- | --- | --- | --- | --- |
| O=C1c2ccccc2C(=O)N1C1CCN(CCc2c[nH]c3ccccc23)CC1 [II, 2-(1-[2-(Indol-3-yl)ethyl]piperid-4-yl)-1H-isoindol-1,3-(2H)-dione] | potent inhibitors | 8.3 | very weak inhibitors | 0.06 | – |
| O=C1c2ccccc2C(=O)N1C1CCN(Cc2ccccc2)CC1 [B, 2-(1-benzylpiperid-4-yl)-1H-isoindol-1,3-(2H)-dione, reference compound] | inactive | inactive | inactive | inactive | – |
| O=C1c2ccccc2S(=O)(=O)N1C1CCN(Cc2c[nH]c3ccccc23)CC1 [Example 3, 2-(1-[Indol-3-ylmethyl]piperid-4-yl)-1,2-benzisothiazolin-3-one-1,1-dioxide] | – | – | – | – | 56 |
| O=C1c2ccc(Cl)cc2C(=O)N1C1CCN(Cc2c[nH]c3ccccc23)CC1 [Example 16, 5-Chloro-2-[1-(indol-3-ylmethyl)piperid-4-yl]-1H-isoindole-1,3-(2H)-dione] | – | – | – | – | 63 |
| O=C1c2ccccc2C(=O)N1C1CCN(Cc2c[nH]c3ccccc23)CC1 [I, 2-(1-[Indol-3-ylmethyl]piperid-4-yl)-1H-isoindole-1,3-(2H)-dione] | potent inhibitors | 9.5 | very weak inhibitors | 0.01 | 53 |
| Nc1ccc2c(c1)C(=O)N(C1CCN(CCc3c[nH]c4ccccc34)CC1)C2=O [III, 5-amino-2-(1-[2-(indol-3-yl)ethyl]piperid-4-yl)-1H-isoindole-1,3-(2H)-dione] | potent inhibitors | 11.0 | very weak inhibitors | inactive | – |
| O=C1c2ccc(Cl)cc2C(=O)N1C1CCN(CCc2c[nH]c3ccccc23)CC1 [Example 8, 5-Chloro-2-(1-[2-(indol-3-yl)ethyl]piperid-4-yl)-1H-isoindole-1,3-(2H)-dione] | – | – | – | – | 94 |

Source: patent publication US4291042A, “Antidepressant piperidine derivatives” (John Wyeth & Brother Limited, priority 1979, dated 1981)
